According to US20130065928A1, “BIOMARKERS FOR PI3K-DRIVEN CANCER” (WYETH LLC, priority 2010, published 2013):

How the values were obtained:
PKN3-T860 = assay: Turn motif (T860) phosphorylation of Y27632-primed PKN3 after kinase inhibitor treatment (Western blot); assay type: cell-based, human; conditions: WT and KD PKN3, doxycycline 1 μg/ml 5 hours, primed with 10 μM Y27632, inhibitor 7 hours; FIGS. 4 and 5
Text: (§1) The full-length cDNA of human PKN3 (WT or wt) was amplified by PCR and cloned into a GST-fusion expression vector under the control in a doxycycline (Dox)-inducible promoter. A kinase dead (KD or kd) version of PKN3, which comprises a K588R substitution, was also cloned into the same vector using the same strategy. The proteins were expressed in HEK293T cells transfected with the PKN3 WT and KD constructs.
(§2) For protein extraction, cells were washed twice with cold phosphate-buffered saline (PBS) and lysed at 4° C. in lysis buffer containing 20 mM Tris (pH 7.5), 137 mM NaCl, 15% (vol/vol) glycerol, 1% (vol/vol) Nonidet P-40 (NP-40), 2 mM phenylmethylsulfonyl fluoride, […] of aprotinin per ml, […] leupeptin, 2 mM benzamidine, 1 mM sodium vanadate, 25 mM β-glycerolphosphate, 50 mM NaF, and 10 mM Na-pyrophosphate. Lysates were cleared by centrifugation at 14,000×g for 5 min, and aliquots of the lysates were analyzed for protein expression and enzyme activity (see below). Samples were separated by sodium dodecyl sulfate-polyacrylamide gel electrophoresis (SDS-PAGE) and transferred to nitrocellulose filters (Schleicher & Schuell). […] Bound antibody was detected with anti-mouse-, anti-goat, or anti-rabbit-conjugated alkaline phosphatase (Santa Cruz Biotechnology) in TBST, washed, and developed with nitroblue tetrazolium and 5-bromo-4-chloro-3-indolylphosphate (Promega). […]

S6K-ST389 = assay: Phosphorylation of S6K-ST389, a target of mTORC1 (Western blot); assay type: cell-based; conditions: PKN3-transfected cells, inhibitor 7 hours; FIGS. 4 and 5
Procedure: (§3) For protein extraction, cells were washed twice with cold phosphate-buffered saline (PBS) and lysed at 4° C. in lysis buffer containing 20 mM Tris (pH 7.5), 137 mM NaCl, 15% (vol/vol) glycerol, 1% (vol/vol) Nonidet P-40 (NP-40), 2 mM phenylmethylsulfonyl fluoride, […] of aprotinin per ml, […] leupeptin, 2 mM benzamidine, 1 mM sodium vanadate, 25 mM β-glycerolphosphate, 50 mM NaF, and 10 mM Na-pyrophosphate. Lysates were cleared by centrifugation at 14,000×g for 5 min, and aliquots of the lysates were analyzed for protein expression and enzyme activity (see below). Samples were separated by sodium dodecyl sulfate-polyacrylamide gel electrophoresis (SDS-PAGE) and transferred to nitrocellulose filters (Schleicher & Schuell). Filters were blocked in TBST buffer (10 mM Tris-HCl [pH 7.5], 150 mM NaCl, 0.05% [vol/vol] Tween 20, 0.5% [wt/vol] sodium azide) containing 5% (wt/vol) dried milk. The respective antibodies were added in TBST at appropriate dilutions. Bound antibody was detected with anti-mouse-, anti-goat, or anti-rabbit-conjugated alkaline phosphatase (Santa Cruz Biotechnology) in TBST, washed, and developed with nitroblue tetrazolium and 5-bromo-4-chloro-3-indolylphosphate (Promega). Alternatively, horseradish peroxidase-conjugated secondary antibodies were used and developed by enhanced chemiluminescence (Amersham).
(§4) PKN antibodies have been described in Leenders, 2004. […]

PKN3-T718 = assay: Activation loop (T718) phosphorylation of Y27632-primed PKN3 after kinase inhibitor treatment (Western blot); assay type: cell-based, human; conditions: WT and KD PKN3, doxycycline 1 μg/ml 5 hours, primed with 10 μM Y27632, inhibitor 7 hours; FIGS. 4 and 5
Text: as §1, §2

PKN2 = assay: Phosphorylated PKN2 (Western blot); assay type: cell-based; conditions: PKN3-transfected cells, inhibitor 7 hours; FIGS. 4 and 5, panels C
Procedure: as §3, with “(Amersham). […]” for “(Amersham).”

AKT-S473 = assay: Phosphorylation of AKT-S473, a target of mTORC2 (Western blot); assay type: cell-based; conditions: PKN3-transfected cells, inhibitor 7 hours; FIGS. 4 and 5
Procedure: as §3, §4

PKN1 = assay: Phosphorylated PKN1 (Western blot); assay type: cell-based; conditions: PKN3-transfected cells, inhibitor 7 hours; FIGS. 4 and 5, panels C
Procedure: as §3, with “(Amersham). […]” for “(Amersham).”

PKN3 = target: T1, PKN3 (Homo sapiens, UniProt Q6P5Z2); assay: Kinase activity of PKN3 in transfected cells, phospho-GSKα read-out (Western blot); assay type: cell-based; conditions: cells transfected with WT PKN3; changing concentrations; FIG. 2
T1 construct: The full-length cDNA of human PKN3 (WT or wt) was amplified by PCR and cloned into a GST-fusion expression vector; GST; expressed in transfected cells; host or cells: HEK293T
T1 sequence (Q6P5Z2 whole entry, the tested form may be a part): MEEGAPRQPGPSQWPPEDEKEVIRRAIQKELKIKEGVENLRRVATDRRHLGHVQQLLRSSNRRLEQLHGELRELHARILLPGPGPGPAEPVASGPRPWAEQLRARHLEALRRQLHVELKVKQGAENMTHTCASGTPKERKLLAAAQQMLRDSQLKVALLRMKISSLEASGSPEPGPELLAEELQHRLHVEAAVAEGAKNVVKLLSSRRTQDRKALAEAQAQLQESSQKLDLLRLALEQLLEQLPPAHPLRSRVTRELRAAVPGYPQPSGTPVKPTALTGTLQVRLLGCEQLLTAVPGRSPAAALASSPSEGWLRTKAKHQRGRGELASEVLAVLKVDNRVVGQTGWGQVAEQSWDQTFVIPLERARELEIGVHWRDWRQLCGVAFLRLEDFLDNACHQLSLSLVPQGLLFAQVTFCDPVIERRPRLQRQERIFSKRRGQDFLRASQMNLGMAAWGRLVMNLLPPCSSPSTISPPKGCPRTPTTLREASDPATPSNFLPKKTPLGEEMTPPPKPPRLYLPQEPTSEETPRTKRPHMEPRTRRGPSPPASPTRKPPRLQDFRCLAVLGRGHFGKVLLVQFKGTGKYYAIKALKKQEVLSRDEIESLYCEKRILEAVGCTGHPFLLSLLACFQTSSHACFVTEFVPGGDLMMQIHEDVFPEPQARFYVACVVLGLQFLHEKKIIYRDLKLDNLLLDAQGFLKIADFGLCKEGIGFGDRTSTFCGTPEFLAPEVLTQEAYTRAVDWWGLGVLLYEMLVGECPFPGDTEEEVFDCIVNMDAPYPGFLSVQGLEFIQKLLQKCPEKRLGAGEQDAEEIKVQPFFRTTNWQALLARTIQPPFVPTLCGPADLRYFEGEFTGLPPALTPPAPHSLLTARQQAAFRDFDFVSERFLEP
Text: (§5) The full-length cDNA of human PKN3 (WT or wt) was amplified by PCR and cloned into a GST-fusion expression vector under the control in a doxycycline (Dox)-inducible promoter. A kinase dead (KD or kd) version of PKN3, which comprises a K588R substitution, was also cloned into the same vector using the same strategy. The proteins were expressed in HEK293T cells transfected with the PKN3 WT and KD constructs. […] WT PKN3 is phosphorylated at the turn motif threonine (P*-PKN3^T860) and phosphorylates the GSKα substrate, whereas the KD version does neither (FIG. 1).
as §3
Various ATP-type kinase inhibitors were assessed for their ability to inhibit the kinase activity of both recombinant wildtype (WT) and kinase dead (KD) versions of PKN3.

kinase dead PKN3 = target: T2, kinase dead PKN3 (Homo sapiens, UniProt Q6P5Z2, K588R); assay: Priming of kinase dead PKN3 for turn motif threonine phosphorylation by ATP binding pocket competitive inhibitors (Western blot); assay type: cell-based; conditions: KD PKN3 (K588R) in transfected cells; changing concentrations; FIG. 3
T2 construct: The full-length cDNA of human PKN3 (WT or wt) was amplified by PCR and cloned into a GST-fusion expression vector; GST; expressed in transfected cells; host or cells: HEK293T
T2 sequence (Q6P5Z2 whole entry K588R, the tested form may be a part): as the sequence (Q6P5Z2 whole entry, the tested form may be a part) above, with K588R counted along it
Text: as §5, §3

[1] = tested on: HEK293T cells transfected with wild-type PKN3; assay: PKN3-induced morphology changes in cells (photomicrographs); assay type: cell-based; conditions: FIG. 6, panel C
Text: FIG. 6 depicts photomicrographs of HEK293T cells transfected with wild-type (panels A, B and C) or kinase-dead (panels D, E and F) PKN3 constructs under control of a doxycycline responsive promoter, in the absence of doxycycline (panels A and D), in the presence of doxycycline (panels B and E) or in the presence of doxycycline and WAY-125132 (panels C and F).
The effects of WAY-125132 on PKN3-induced morphology changes in cells were examined.

Compound | inhibition of PKN3 T860 phosphorylation (PKN3-T860) | inhibition of phosphorylation of S6K-ST389 (S6K-ST389) | inhibition of PKN3 T718 phosphorylation (PKN3-T718) | effect on PKN2 (PKN2) | inhibition of phosphorylation of AKT-S473 (AKT-S473) | effect on PKN1 (PKN1) | inhibition of kinase activity of kinase active phosphorylated PKN3 (phospho-GSKα read-out) (PKN3) | priming of kinase dead PKN3 to become phosphorylated at the turn motif threonine (kinase dead PKN3) | effect on transformed phenotype of doxycycline treated cells transfected with WT PKN3 [1]
CO[C@H]1C[C@@H]2CC[C@@H](C)[C@@](O)(O2)C(=O)C(=O)N2CCCC[C@H]2C(=O)O[C@H]([C@H](C)C[C@@H]2CC[C@@H](OC(=O)C(C)(CO)CO)[C@H](OC)C2)CC(=O)[C@H](C)/C=C(\C)[C@@H](O)[C@@H](OC)C(=O)[C@H](C)C[C@H](C)/C=C/C=C/C=C/1C [CCI-779, (3S,6R,7E,9R,10R,12R,14S,15E,17E,19E,21S,23S,26R,27R,34aS)-9,10,12,13,14,21,22,23,24,25,26,27,32,33,34,34a-Hexadecahydro-9,27-dihydroxy-3-[(1R)-2-[(1S,3R,4R)-4-hydroxy-3-methoxycyclohexyl]-1-methylethyl]-10,21-dimethoxy-6,8,12,14,20,26-hexamethyl-23,27-epoxy-3H-pyrido[2,1-c][1,4]oxaazacyclohentriacontine-1,5,11,28,29(4H,6H,31H)-pentone 4′-[2,2-bis(hydroxymethyl)propionate]] | had no effect | inhibit S6K-ST389 | had no effect | had no effect | had no effect | had no effect | – | – | –
Oc1ccc(-c2nc(-c3ccncc3)c(-c3ccc(F)cc3)[nH]2)cc1 [SB202190] | – | – | – | – | – | – | inhibit the kinase activity of kinase active phosphorylated PKN3 in a concentration dependent manner | primed kinase dead PKN3 to become phosphorylated at the turn motif threonine in a concentration dependent manner | –
CCc1[nH]c(-c2ccc(OC)cc2)nc1-c1ccncc1 [SB202474] | – | – | – | – | – | – | not | not | –
Cl.Cl.N=C(N)NN=C(Cn1ccnc1)c1ccc(Cl)cc1Cl [WAY-125132, 2-[1-(2,4-Dichlorophenyl)-2-(1H-imidazol-1-yl)ethylidene]hydrazinecarboximidamide dihydrochloride] | inhibit T860 phosphorylation in a dose dependent manner | inhibit the phosphorylation of S6K-ST389 | not T718 phosphorylation | – | inhibit the phosphorylation | – | – | – | reversed this effect
C[C@@H](N)[C@H]1CC[C@H](C(=O)Nc2ccncc2)CC1 [Y27632] | – | – | – | – | – | – | inhibit the kinase activity of kinase active phosphorylated PKN3 in a concentration dependent manner | primed kinase dead PKN3 to become phosphorylated at the turn motif threonine in a concentration dependent manner | –
